Assay [1] has as its target T1, RIP1 kinase (Homo sapiens, UniProt Q13546).
T1 sequence (Q13546 1-375 limits assumed): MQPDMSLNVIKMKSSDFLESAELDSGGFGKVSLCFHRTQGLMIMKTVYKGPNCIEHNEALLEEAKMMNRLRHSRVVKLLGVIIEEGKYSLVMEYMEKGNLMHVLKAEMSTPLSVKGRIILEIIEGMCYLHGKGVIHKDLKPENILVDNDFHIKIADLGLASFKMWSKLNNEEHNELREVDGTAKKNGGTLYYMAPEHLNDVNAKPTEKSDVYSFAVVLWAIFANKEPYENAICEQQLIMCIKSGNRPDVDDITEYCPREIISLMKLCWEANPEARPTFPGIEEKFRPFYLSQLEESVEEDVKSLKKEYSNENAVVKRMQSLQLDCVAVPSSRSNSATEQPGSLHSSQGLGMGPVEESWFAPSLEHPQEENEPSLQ
In words: fluorescent polarization based binding assay. The note with it: mean of a minimum of 2 experiments. The source says: A fluorescent polarization based binding assay was used to assess the activity of the compounds of this invention, the details of which are disclosed in International Patent Appln. No. PCT/IB2014/059004, now, International Patent Appln. Pub.

The test system of assay [2] is human monocytic leukemia U937 cells. In words: necroptosis assay in U937 cells. It counts as cell-based. The note with it: Homo sapiens, U-937, U937 cells; viability by cellular ATP (Cell Titer-Glo); read-out: pIC50, inhibited necrosis in U937 cells (converted). An outline of the steps:
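Necroptosis was induced in human U937 or mouse L929 cells, and viability was quantified as cellular ATP with Cell Titer-Glo. Data are means±standard deviation.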
A general note: Cellular ATP, detected with luciferase, serves as a proxy for viable cell number.

SMILES strings stand for the structures. Several values for one entry are separate records, joined by “and”; a condition that tells them apart may be missing. Identical values can stand only once.

Turning to `N#Cc1cccc([C@@H]2CC=NN2C(=O)C2CCN(c3ccnc(C#N)n3)CC2)c1` [Example 74, (S)-4-(4-(5-(3-cyanophenyl)-4,5-dihydro-1H-pyrazole-1-carbonyl)piperidin-1-yl)pyrimidine-2-carbonitrile], the IC50 in assay [1] was 1 to 31.6 nM; in assay [2], 1 to 100 nM.
Turning to `O=C(NC1CCNCC1)c1ccnc(N2CCC(C(=O)N3N=CC[C@H]3c3ccccc3)CC2)n1` [Example 147, (S)-2-(4-(5-phenyl-4,5-dihydro-1H-pyrazole-1-carbonyl)piperidin-1-yl)-N-(piperidin-4-yl)pyrimidine-4-carboxamide], the results for the IC50 in assay [1] and in assay [2] were 1 to 31.6 nM and 1 to 100 nM, respectively.
In the case of `O=C(C1CCN(c2cnc3ccccc3n2)CC1)N1N=CC[C@H]1c1ccccc1` [Example 39, (S)-(5-phenyl-4,5-dihydro-1H-pyrazol-1-yl)(1-(quinoxalin-2-yl)piperidin-4-yl)methanone], the IC50 in assay [1] was 1 to 31.6 nM and 1 to 10 nM; in assay [2], 1 to 100 nM.
As to `O=C(C1CCN(c2ncc(-c3ccccc3)o2)CC1)N1N=CC[C@H]1c1ccccc1` [Example 67, (S)-(5-phenyl-4,5-dihydro-1H-pyrazol-1-yl)(1-(5-phenyloxazol-2-yl)piperidin-4-yl)methanone], the values for the IC50 in assay [1] and in assay [2] were 1 to 31.6 nM and 1 to 100 nM, respectively.
The corresponding values for `NC(=O)c1nc(N2CCC(C(=O)N3N=CC[C@H]3c3cncc(F)c3)CC2)ncc1F` [Example 161, (S)-5-fluoro-2-(4-(5-(5-fluoropyridin-3-yl)-4,5-dihydro-1H-pyrazole-1-carbonyl)piperidin-1-yl)pyrimidine-4-carboxamide] are 1 to 31.6 nM and 1 to 100 nM.
Take `CSc1nccc(N2CCC(C(=O)N3N=CC[C@H]3c3ccccc3)CC2)n1` [Example 45, (S)-(1-(2-(methylthio)pyrimidin-4-yl)piperidin-4-yl)(5-phenyl-4,5-dihydro-1H-pyrazol-1-yl)methanone]: the IC50 is 1 to 31.6 nM and 1 to 10 nM in assay [1]; 1 to 100 nM in assay [2].
As to `O=C(C1CCN(c2ccc(C(F)(F)F)nn2)CC1)N1N=CC[C@H]1c1ccccc1` [Example 26, (S)-(5-phenyl-4,5-dihydro-1H-pyrazol-1-yl)(1-(6-(trifluoromethyl)pyridazin-3-yl)piperidin-4-yl)methanone], the results for the IC50 in assay [1] and in assay [2] were 1 to 31.6 nM and 1 to 100 nM, respectively.
As for `O=C(C1CCN(c2ncc(F)c(OCCO)n2)CC1)N1N=CC[C@H]1c1ccccc1` [Example 155, (S)-(1-(5-fluoro-4-(2-hydroxyethoxy)pyrimidin-2-yl)piperidin-4-yl)(5-phenyl-4,5-dihydro-1H-pyrazol-1-yl)methanone], the IC50 is 1 to 31.6 nM in assay [1] and 1 to 100 nM in assay [2].
As to `N#Cc1cccc([C@@H]2CC=NN2C(=O)C2CCN(c3ncc4cn[nH]c4n3)CC2)c1` [Example 76, (S)-3-(1-(1-(1H-pyrazolo[3,4-d]pyrimidin-6-yl)piperidine-4-carbonyl)-4,5-dihydro-1H-pyrazol-5-yl)benzonitrile], the IC50 in assay [1] was 1 to 31.6 nM; in assay [2] it was 1 to 100 nM.
`O=C1Cc2cnc(N3CCC(C(=O)N4N=CC[C@H]4c4cc(F)cc(F)c4)CC3)nc2N1` [Example 80, (S)-2-(4-(5-(3,5-difluorophenyl)-4,5-dihydro-1H-pyrazole-1-carbonyl)piperidin-1-yl)-5H-pyrrolo[2,3-d]pyrimidin-6(7H)-one]: the IC50 in assay [1] was 1 to 31.6 nM and 1 to 10 nM; in assay [2], 1 to 100 nM.
`C#Cc1cc(N2CCC(C(=O)N3N=CC[C@H]3c3cc(F)cc(F)c3)CC2)ncn1` [Example 157, (S)-(5-(3,5-difluorophenyl)-4,5-dihydro-1H-pyrazol-1-yl)(1-(6-ethynylpyrimidin-4-yl)piperidin-4-yl)methanone]: the IC50 in assay [1] is 1 to 31.6 nM and 1 to 10 nM; in assay [2], 1 to 100 nM.
For `Nc1cncc(N2CCC(C(=O)N3N=CC[C@H]3c3ccccc3)CC2)n1` [Example 41, (S)-(1-(6-aminopyrazin-2-yl)piperidin-4-yl)(5-phenyl-4,5-dihydro-1H-pyrazol-1-yl)methanone], the IC50 is 1 to 31.6 nM in assay [1] and 1 to 100 nM in assay [2].
With `O=C(c1ccnc(N2CCC(C(=O)N3N=CC[C@H]3c3ccccc3)CC2)n1)N1CCNCC1` [Example 146, (S)-(5-phenyl-4,5-dihydro-1H-pyrazol-1-yl)(1-(4-(piperazine-1-carbonyl)pyrimidin-2-yl)piperidin-4-yl)methanone], the IC50 is 1 to 31.6 nM in assay [1] and 1 to 100 nM in assay [2].
In the case of `N#Cc1cnc(N2CCC(C(=O)N3N=CC[C@H]3c3cc(F)cc(F)c3)CC2)nc1` [Example 92, (S)-2-(4-(5-(3,5-difluorophenyl)-4,5-dihydro-1H-pyrazole-1-carbonyl)piperidin-1-yl)pyrimidine-5-carbonitrile], the IC50 in assay [1] is 1 to 31.6 nM and 1 to 10 nM; in assay [2], 1 to 100 nM.
Consider `O=C(C1CCN(c2ncc(O)cn2)CC1)N1N=CC[C@H]1c1ccccc1` [Example 128, (S)-(1-(5-hydroxypyrimidin-2-yl)piperidin-4-yl)(5-phenyl-4,5-dihydro-1H-pyrazol-1-yl)methanone], for which the IC50 in assay [1] is 1 to 31.6 nM; in assay [2] it was 1 to 100 nM.
On to `N#Cc1nccnc1N1CCC(C(=O)N2N=CC[C@H]2c2ccccc2)CC1` [Example 44, (S)-3-(4-(5-phenyl-4,5-dihydro-1H-pyrazole-1-carbonyl)piperidin-1-yl)pyrazine-2-carbonitrile], for which the IC50 in assay [1] was 1 to 31.6 nM and 1 to 10 nM; in assay [2], 1 to 100 nM.
In the case of `COc1cc(N2CCC(C(=O)N3N=CC[C@H]3c3ccccc3)CC2)nc(N)n1` [Example 34, (S)-(1-(2-amino-6-methoxypyrimidin-4-yl)piperidin-4-yl)(5-phenyl-4,5-dihydro-1H-pyrazol-1-yl)methanone], the IC50 is 1 to 31.6 nM in assay [1] and 1 to 100 nM in assay [2].
The corresponding values for `NC(=O)c1nc(N2CCC(C(=O)N3N=CC[C@H]3c3cncc(F)c3)CC2)ncc1Cl` [Example 124, (S)-5-chloro-2-(4-(5-(5-fluoropyridin-3-yl)-4,5-dihydro-1H-pyrazole-1-carbonyl)piperidin-1-yl)pyrimidine-4-carboxamide] are 1 to 31.6 nM and 1 to 100 nM.
In the case of `CCOc1ccnc(N2CCC(C(=O)N3N=CC[C@H]3c3ccccc3)CC2)n1` [Example 58, (S)-(1-(4-ethoxypyrimidin-2-yl)piperidin-4-yl)(5-phenyl-4,5-dihydro-1H-pyrazol-1-yl)methanone], the IC50 was 1 to 31.6 nM and 1 to 10 nM in assay [1]; 1 to 100 nM in assay [2].
For `CNC(=O)c1csc(N2CCC(C(=O)N3N=CC[C@H]3c3ccccc3)CC2)n1` [Example 54, (S)-N-methyl-2-(4-(5-phenyl-4,5-dihydro-1H-pyrazole-1-carbonyl)piperidin-1-yl)thiazole-4-carboxamide], the IC50 in assay [1] was 1 to 31.6 nM; in assay [2] it was 1 to 100 nM.
On to `N#Cc1cncnc1N1CCC(C(=O)N2N=CC[C@H]2c2cc(F)cc(F)c2)CC1` [Example 88, (S)-4-(4-(5-(3,5-difluorophenyl)-4,5-dihydro-1H-pyrazole-1-carbonyl)piperidin-1-yl)pyrimidine-5-carbonitrile], for which the figures for the IC50 in assay [1] and in assay [2] were 1 to 31.6 nM and 1 to 100 nM, respectively.
As for `CSc1cc(N2CCC(C(=O)N3N=CC[C@H]3c3ccccc3)CC2)ncn1` [Example 59, (S)-(1-(6-(methylthio)pyrimidin-4-yl)piperidin-4-yl)(5-phenyl-4,5-dihydro-1H-pyrazol-1-yl)methanone], the IC50 in assay [1] is 1 to 31.6 nM and 1 to 10 nM; in assay [2], 1 to 100 nM.

(Values after patent publication US20190345138A1, “HETEROCYCLIC AMIDES AS KINASE INHIBITORS” (GlaxoSmithKline Intellectual Property Development Limited, priority 2016, published 2019).)
